Experimental findings from patent US20240243327A1, “NAPHTHALENE DIIMIDE COMPOUND AND REDOX FLOW BATTERY CONTAINING THE SAME” (Korea Advanced Institute of Science and Technology, priority 2023, published 2024) are described below.

Like-named read-outs stand apart in the source and are kept apart here.

The nature of the data set: Analysis of solubility (UV-Vis calibration at 361 nm, saturated solution at room temperature). Format: physicochemical. The settings on record: for solubility: thermodynamic from solid. Here is the method:
First, the compound was dissolved in 2 mL of deionized water (DI water), and then the UV-Vis spectrum of the solution was measured. 1 mL of the solution was taken out, 1 mL of deionized water was added to reduce the concentration by half, and then the UV-Vis spectrum was measured. This process was repeated several times. A calibration curve was drawn using λ=361 nm (π-π* transition) from the UV-Vis spectrum. At this time, a UV-Vis spectrum of deionized water was used for baseline measurement. […] The solution was filtered, and then the total volume of the solution was recorded. […] of the filtrate was taken, and then deionized water was added to bring the volume to 2 mL. Thereafter, 1 mL of the solution was taken and fresh deionized water was added to dilute the solution to a volume of 2 mL. The UV-Vis spectrum was recorded until the absorbance at λ=361 nm was smaller than 1 a.u. The linear equation of the calibration curve was used to calculate the concentration of the solution, and the molarity equation was used to estimate the maximum solubility of the compound.

Regarding `CN1C(=O)c2ccc3c4c(ccc(c24)C1=O)C(=O)N(C)C3=O` [Comparative Example 1, 2,7-dimethylbenzo [lmn] [3,8] phenanthroline-1,3,6,8 (2H,7H) -tetraone], the solubility in water entry (deionized water, room temperature, result in words) is given as “substantially insoluble in water”.
What is called solubility is how much of the substance goes into solution per volume. Regarding `O=C(O)CN1C(=O)c2ccc3c4c(ccc(c24)C1=O)C(=O)N(CC(=O)O)C3=O` [Comparative Example 2, 2,2′-(1,3,6,8-tetraoxo-1,3,6,8-tetrahydrobenzo [lmn] [3,8]phenanthroline-2,7-diyl)diacetate Potassium], the solubility (saline or isotonic, 1 M KCl solution as printed, read-out: solubility in the 1 M KCl solution) is ~25 mM.
Turning to `C[N+](C)(C)CCC[N+](C)(C)CCCN1C(=O)c2ccc3c4c(ccc(c24)C1=O)C(=O)N(CCC[N+](C)(C)CCC[N+](C)(C)C)C3=O` [Example 1], the solubility by setting is: (1.5 M KCl aqueous solution, saline or isotonic, KCl aqueous solution (method: 1.5 M KCl), room temperature, read-out: solubility in the KCl solution) ~1200 mM; (deionized water, room temperature, read-out: solubility in water) ~1500 mM.
